ChEMBL document CHEMBL3045589, “Aromatic amino analogues of artemisinin: synthesis and in vivo antimalarial activity” (2010)

Tested on: Plasmodium yoelii nigeriensis
Assay: Antimalarial activity against Plasmodium yoelii nigeriensis infected in po-dosed Swiss albino mouse assessed as inhibition of parasite growth administered qd for 4 days
Assay type: functional
Conditions: 96 h

SMILES	ED50	ED90
C[C@@H]1CC[C@@H]2[C@]34OO[C@](C)(CC[C@@H]13)O[C@H]4OC(Nc1ccc(O)c(CN3CCN(C)CC3)c1)[C@@]2(C)Br (stereo not given in full)	9.9 mg/kg	17.4 mg/kg
C[C@@H]1CC[C@@H]2[C@]34OO[C@](C)(CC[C@@H]13)O[C@H]4OC(Nc1ccc(O)c(CN3CCNCC3)c1)[C@@]2(C)Br (stereo not given in full)	12.4 mg/kg	24.6 mg/kg
C[C@@H]1CC[C@@H]2[C@]34OO[C@](C)(CC[C@@H]13)O[C@H]4OC(Nc1ccc(O)c(CN3CCCCC3)c1)[C@@]2(C)Br (stereo not given in full)	11.3 mg/kg	23.1 mg/kg
C[C@@H]1CC[C@@H]2[C@]34OO[C@](C)(CC[C@@H]13)O[C@H]4OC(Nc1ccc(O)c(CN3CCN(c4ccccc4)CC3)c1)[C@@]2(C)Br (stereo not given in full)	5.41 mg/kg	8.72 mg/kg
CCN(CC)Cc1cc(NC2O[C@@H]3O[C@@]4(C)CC[C@H]5[C@H](C)CC[C@H]([C@@]35OO4)[C@]2(C)Br)ccc1O (stereo not given in full)	12.3 mg/kg	24.2 mg/kg
C[C@@H]1CC[C@@H]2[C@]34OO[C@](C)(CC[C@@H]13)O[C@H]4OC(Nc1ccc(O)c(CN3CCN(c4ccccn4)CC3)c1)[C@@]2(C)Br (stereo not given in full)	7.9 mg/kg	12.2 mg/kg
C[C@@H]1CC[C@@H]2[C@]34OO[C@](C)(CC[C@@H]13)O[C@H]4OC(Nc1ccc(O)c(CN3CCN(c4cccc(C(F)(F)F)c4)CC3)c1)[C@@]2(C)Br (stereo not given in full)	6.01 mg/kg	9.28 mg/kg
CCN1CCN(Cc2cc(NC3O[C@@H]4O[C@@]5(C)CC[C@H]6[C@H](C)CC[C@H]([C@@]46OO5)[C@]3(C)Br)ccc2O)CC1 (stereo not given in full)	9.83 mg/kg	16.6 mg/kg
C[C@@H]1CC[C@@H]2[C@]34OO[C@](C)(CC[C@@H]13)O[C@H]4OC(Nc1ccc(O)c(CN3CCN(Cc4ccccc4)CC3)c1)[C@@]2(C)Br (stereo not given in full)	7.12 mg/kg	12.1 mg/kg
C[C@@H]1CC[C@H]2[C@@H](C)C(=O)O[C@@H]3O[C@@]4(C)CC[C@@H]1[C@]32OO4 [ARTEMISININ]	16.4 mg/kg	27.1 mg/kg
